Experimental data taken from patent US7276519B2, “Thieno[3,2-b]pyridine-6-carbonitriles and thieno[2,3-b]pyridine-5-carbonitriles as protein kinase inhibitors” (Wyeth, priority 2002, dated 2007).
Where “and” joins values, the source holds several entries; their conditions need not be identical. Equal entries are not always repeated. Where two headings read alike, the source gives them in different places.

What was measured:
[1] = biological target: T1, Recombinant human Src enzyme (Homo sapiens, UniProt P12931); experiment: Src kinase assay (LANCE FRET); type: biochemical; details: Table 3; 100 μM ATP, biotinylated Cdk1 peptide substrate
T1 construct: purchased PanVera P3044
Protocol: Recombinant human Src enzyme was obtained from PanVera (P3044). […] Homogeneous fluorescence resonance energy transfer kinase assays were performed using the europium/APC detection format (LANCE, Perkin Elmer). Src enzyme (10 ng) was mixed with biotinylated peptide (final concentration 2 μM), 50 mM Hepes (pH 7.5), 10 mM MgCl2, 20 μg/ml BSA, 0.001% Brij-35 (sigma), 100 μM ATP, 1% DMSO. The kinase reaction was incubated for 70 min at 37° C. The reaction was stopped with EDTA at a final concentration of 30 mM EDTA/25 mM Hepes (pH 7.5)/10 μg/ml BSA. The mixture was combined with Eu-labeled anti-phosphotyrosine antibody PT66 (Perkin Elmer, AD0068) and Streptavidin Surelight-APC (Perkin Elmer, CR130-100) in 50 mM Hepes (pH 7.5)/20 μg/ml BSA, and incubated for 30 min according to manufacturer's specifications. […] Multiple entries for a given compound indicate that it was tested multiple times.

[2] = tested on: Rat2 fibroblasts stably transformed with v-Src/Hu c-Src fusion gene; experiment: Anchorage independent Src-transformed fibroblast proliferation assay; type: cell-based, rat
Protocol: Anchorage Independent Src-Transformed Fibroblast Proliferation Assay Rat2 fibroblasts stably transformed with a plasmid containing a CMV promotor controlled v-Src/Hu c-Src fusion gene in which the catalytic domain of human c-Src was inserted in place of the v-Src catalytic domain in the v-Src gene are used for the measurement of src dependent suspension growth. […] Multiple entries for a given compound indicate that it was tested multiple times.

[3] = biological target: T2, Rat2 fibroblasts stably transformed with v-Src/Hu Lck fusion gene (Homo sapiens, UniProt P06239, cells depend on it, form not given); experiment: Anchorage independent Lck-transformed fibroblast proliferation assay; type: cell-based, rat; details: Table 3; read-out: Lck Cells IC50
T2 construct: Candidates are e.g. Schmidt-Ruppin A (P00524) or Prague C (P00526); The human Lck catalytic domain stands in place of the v-Src catalytic domain
Protocol: Anchorage Independent Lck-Transformed Fibroblast Proliferation Assay
Rat2 fibroblasts stably transformed with a plasmid containing a CMV promotor controlled v-Src/Hu Lck fusion gene in which the catalytic domain of human Lck was inserted in place of the v-Src catalytic domain in the v-Src gene are used for the measurement of src dependent suspension growth. Ultra-low cluster plates (Costar # 3474) are seeded with 10,000 cells per well on Day 1. Compound is added in serial two-fold dilutions from 10 micromolar to 0.009 micromolar on Day 2 and MTS reagent (Promega) is added on Day 5 (100 microliters of MTS/medium mix+100 microliters of medium already on the cells and the absorbance is measured at 490 nm. The results are analyzed as follows to yield an IC50 for proliferation (micromolar units) as follow: % inhibition=(Abs490 nm sample−blank)/(Abs490 nm no cmpd control−blank)×100%. The results obtained for representative compounds of this invention are listed in Table 2. Multiple entries for a given compound indicate that it was tested multiple times.

[4] = Rattus norvegicus, Rat2, read-out: Src Cells IC50 μM or % inhib at 10 μM (IC50 values), Table 3
[5] = read-out: Src Cells IC50 μM or % inhib at 10 μM (IC50 values), Table 3
[6] = Rattus norvegicus, Rat2, Table 3, read-out: Src Cells IC50 μM or % inhib at 10 μM (IC50 values)
[7] = Table 3, read-out: Src Cells IC50 μM or % inhib at 10 μM (IC50 values)

T1 sequence (P12931 whole entry): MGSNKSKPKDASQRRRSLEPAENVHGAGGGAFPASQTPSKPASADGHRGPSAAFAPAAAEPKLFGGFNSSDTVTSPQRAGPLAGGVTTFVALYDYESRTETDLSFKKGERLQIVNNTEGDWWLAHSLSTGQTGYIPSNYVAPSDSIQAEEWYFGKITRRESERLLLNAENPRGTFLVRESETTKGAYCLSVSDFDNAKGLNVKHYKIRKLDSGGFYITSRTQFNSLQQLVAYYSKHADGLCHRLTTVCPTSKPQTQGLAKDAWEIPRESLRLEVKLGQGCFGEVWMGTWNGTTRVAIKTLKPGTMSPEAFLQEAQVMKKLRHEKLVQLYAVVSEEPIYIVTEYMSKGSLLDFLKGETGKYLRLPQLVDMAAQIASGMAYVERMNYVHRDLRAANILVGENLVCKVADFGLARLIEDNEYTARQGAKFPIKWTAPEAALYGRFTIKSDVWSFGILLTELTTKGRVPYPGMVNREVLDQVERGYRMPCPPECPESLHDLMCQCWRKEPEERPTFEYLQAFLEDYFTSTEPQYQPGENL
T2 sequence (P06239 whole entry, change not shown, the tested form may be a part): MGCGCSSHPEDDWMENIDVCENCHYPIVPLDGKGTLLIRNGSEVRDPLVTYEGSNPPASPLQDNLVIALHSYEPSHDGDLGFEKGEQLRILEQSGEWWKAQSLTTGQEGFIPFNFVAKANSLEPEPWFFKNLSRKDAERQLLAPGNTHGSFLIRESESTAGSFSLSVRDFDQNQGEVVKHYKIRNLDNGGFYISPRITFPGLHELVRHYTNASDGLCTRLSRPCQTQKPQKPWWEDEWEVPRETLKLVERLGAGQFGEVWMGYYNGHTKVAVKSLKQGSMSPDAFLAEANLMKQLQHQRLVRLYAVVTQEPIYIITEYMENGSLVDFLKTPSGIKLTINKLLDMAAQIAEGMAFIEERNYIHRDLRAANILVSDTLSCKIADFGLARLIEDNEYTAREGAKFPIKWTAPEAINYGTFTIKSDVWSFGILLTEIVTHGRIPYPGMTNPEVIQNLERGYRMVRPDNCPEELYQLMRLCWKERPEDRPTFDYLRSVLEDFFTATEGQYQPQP

SMILES	IC50 [1]	IC50 [2, 4] [µM]	IC50 [2, 5] [µM]	melting point	GI50 [3]	IC50 [2, 6] [µM]	IC50 [2, 7] [µM]
CCN1CCN(Cc2ccc(-c3cc4ncc(C#N)c(Nc5cc(OC)c(Cl)cc5Cl)c4s3)cc2)CC1 [Example 70, 7-[(2,4-dichloro-5-methoxyphenyl)amino]-2-{4-[(4-ethylpiperazin-1-yl)methyl]phenyl}thieno[3,2-b]pyridine-6-carbonitrile]	7.3 nM and 9.2 nM	0.68	0.58	198 to 200 °C	120 nM and 110 nM	–	–
COc1cc(Nc2c(C#N)cnc3cc(-c4ccc(CN(C)CCN(C)C)cc4)sc23)c(Cl)cc1Cl [Example 72, 7-[(2,4-dichloro-5-methoxyphenyl)amino]-2-(4-{[[2-(dimethylamino)ethyl](methyl)amino]methyl}phenyl)thieno[3,2-b]pyridine-6-carbonitrile]	9.4 nM and 15 nM	–	–	–	120 nM and 77 nM	1.3	0.7
COc1cc(Nc2c(C#N)cnc3cc(-c4ccc(N(C)C)cc4)sc23)c(Cl)cc1Cl [Example 73, 7-[(2,4-dichloro-5-methoxyphenyl)amino]-2-[4-(dimethylamino)phenyl]thieno[3,2-b]pyridine-6-carbonitrile]	120 nM and 94 nM	1.4	1.1	255 to 258 °C	1200 nM and 1100 nM	–	–
COc1cc(Nc2c(C#N)cnc3cc(-c4cccc(CN(C)C)c4)sc23)c(Cl)cc1Cl [Example 75, 7-[(2,4-dichloro-5-methoxyphenyl)amino]-2-{3-[(dimethylamino)methyl]phenyl}thieno[3,2-b]pyridine-6-carbonitrile]	26.3 nM and 34.7 nM	–	–	204 to 206 °C	320 nM and 270 nM	1.5	0.97
COc1cc(Nc2c(C#N)cnc3cc(-c4csc(CN(C)C)c4)sc23)c(Cl)cc1Cl [Example 80, 7-[(2,4-dichloro-5-methoxyphenyl)amino]-2-{5-[(dimethylamino)methyl]thien-3-yl}thieno[3,2-b]pyridine-6-carbonitrile]	13 nM and 14 nM	0.79	0.58	184 to 186 °C	74 nM and 73 nM	–	–
COc1cc(Nc2c(C#N)cnc3cc(-c4ccsc4CN4CCN(C)CC4)sc23)c(Cl)cc1Cl [Example 84, 7-[(2,4-dichloro-5-methoxyphenyl)amino]-2-{2-[(4-methylpiperazin-1-yl)methyl]thien-3-yl}thieno[3,2-b]pyridine-6-carbonitrile]	320 nM and 580 nM and 347 nM	3.3	–	218 to 219 °C	3400 nM	–	–
COCCNCc1ccc(-c2cc3ncc(C#N)c(Nc4cc(OC)c(Cl)cc4Cl)c3s2)cc1 [Example 92, 7-[(2,4-dichloro-5-methoxyphenyl)amino]-2-(4-{[(2-methoxyethyl)amino]methyl}phenyl)thieno[3,2-b]pyridine-6-carbonitrile]	8.8 nM and 11 nM	–	–	162 to 164 °C	145 nM and 103 nM	0.829	0.486
COc1cc(Nc2c(C#N)cnc3cc(-c4ccc(CNCCSC)cc4)sc23)c(Cl)cc1Cl [Example 93, 7-[(2,4-dichloro-5-methoxyphenyl)amino]-2-[4-({[2-(methylthio)ethyl]amino}methyl)phenyl]thieno[3,2-b]pyridine-6-carbonitrile]	15 nM and 16 nM	–	–	154 to 156 °C	341 nM and 276 nM	1.22	0.638
COc1cc(Nc2c(C#N)cnc3cc(-c4ccc(CN5CCNCC5)cc4)sc23)c(Cl)cc1Cl [Example 95, 7-[(2,4-dichloro-5-methoxyphenyl)amino]-2-[4-(piperazin-1-ylmethyl)phenyl]thieno[3,2-b]pyridine-6-carbonitrile]	8.4 nM and 8.3 nM and 6.9 nM and 5.3 nM	–	–	218 to 220 °C	193 nM and 133 nM and 168 nM	–	–
COc1cc(Nc2c(C#N)cnc3cc(C#Cc4ccc(CN(C)C)cn4)sc23)c(Cl)cc1Cl [Example 100, 7-[(2,4-dichloro-5-methoxyphenyl)amino]-2-({5-[(dimethylamino)methyl]pyridin-2-yl}ethynyl)thieno[3,2-b]pyridine-6-carbonitrile]	–	–	–	215 to 217 °C	3340 nM and 1930 nM	> 10	–
CCN(CC)Cc1ccc(-c2cc3ncc(C#N)c(Nc4cc(OC)c(Cl)cc4Cl)c3s2)cc1 [Example 106, 7-[(2,4-dichloro-5-methoxyphenyl)amino]-2-{4-[(diethylamino)methyl]phenyl}thieno[3,2-b]pyridine-6-carbonitrile]	10 nM and 6.6 nM	–	–	160 to 162 °C	103 nM and 95 nM and 58 nM and 71 nM	–	–
COc1cc(Nc2c(C#N)cnc3cc(-c4ccc(N5CCOCC5)nc4)sc23)c(Cl)cc1Cl [Example 109, 7-[(2,4-dichloro-5-methoxyphenyl)amino]-2-(6-morpholin-4-ylpyridin-3-yl)thieno[3,2-b]pyridine-6-carbonitrile]	–	–	–	225 to 227 °C	4500 nM	> 10	–
COc1cc(Nc2c(C#N)cnc3cc(-c4ccc(CN5CCS(=O)(=O)CC5)cc4)sc23)c(Cl)cc1Cl [Example 111, 7-[(2,4-dichloro-5-methoxyphenyl)amino]-2-{4-[(1,1-dioxidothiomorpholin-4-yl)methyl]phenyl}thieno[3,2-b]pyridine-6-carbonitrile]	16 nM	–	–	–	283 nM and 428 nM	0.572	0.411
COc1cc(Nc2c(C#N)cnc3cc(-c4ccc(CN5CCN(c6ccccn6)CC5)cc4)sc23)c(Cl)cc1Cl [Example 112, 7-[(2,4-dichloro-5-methoxyphenyl)amino]-2-{4-[(4-pyridin-2-ylpiperazin-1-yl)methyl]phenyl}thieno[3,2-b]pyridine-6-carbonitrile]	–	–	–	245 to 247 °C	> 10000 nM	> 10	5.78
COc1cc(Nc2c(C#N)cnc3cc(-c4ccc(CN5CCN(S(C)(=O)=O)CC5)cc4)sc23)c(Cl)cc1Cl [Example 122, 7-[(2,4-dichloro-5-methoxyphenyl)amino]-2-(4-{[4-(methylsulfonyl)piperazin-1-yl]methyl}phenyl)thieno[3,2-b]pyridine-6-carbonitrile]	18 nM and 23 nM	–	–	211 to 213 °C	897 nM and 1080 nM and 1560 nM	–	–
COc1cc(Nc2c(C#N)cnc3cc(-c4cccc(CN(C)C)n4)sc23)c(Cl)cc1Cl [Example 128, 7-[(2,4-dichloro-5-methoxyphenyl)amino]-2-{6-[(dimethylamino)methyl]pyridin-2-yl}thieno[3,2-b]pyridine-6-carbonitrile]	66 nM and 69 nM	–	–	221 to 223 °C	539 nM and 557 nM	–	–
CCN(CC)Cc1ccc(-c2cc3ncc(C#N)c(Nc4cc(OC)c(Cl)cc4Cl)c3s2)nc1 [Example 133, 7-[(2,4-dichloro-5-methoxyphenyl)amino]-2-{5-[(diethylamino)methyl]pyridin-2-yl}thieno[3,2-b]pyridine-6-carbonitrile]	–	–	–	192 to 193 °C	82 nM and 97 nM	0.436	0.289
COc1cc(Nc2c(C#N)cnc3cc(-c4coc(CN5CCN(C)CC5)c4)sc23)c(Cl)cc1Cl [Example 137, 7-[(2,4-dichloro-5-methoxyphenyl)amino]-2-{5-[(4-methylpiperazin-1-yl)methyl]-3-furyl}thieno[3,2-b]pyridine-6-carbonitrile]	–	–	–	189 to 192 °C	67 nM and 53 nM	0.303	0.211
COc1cc(Nc2c(C#N)cnc3c(-c4ccc(C=O)cc4)csc23)c(Cl)cc1Cl [Example 140, 7-[(2,4-Dichloro-5-methoxyphenyl)amino]-3-(4-formylphenyl)thieno[3,2-b]pyridine-6-carbonitrile]	–	–	–	268 °C (dec.)	> 10000 nM	8.46	8.58
